Assay [1] addresses T1, calpain-2 (Homo sapiens, UniProt P17655).
T1 sequence (P17655 1-700): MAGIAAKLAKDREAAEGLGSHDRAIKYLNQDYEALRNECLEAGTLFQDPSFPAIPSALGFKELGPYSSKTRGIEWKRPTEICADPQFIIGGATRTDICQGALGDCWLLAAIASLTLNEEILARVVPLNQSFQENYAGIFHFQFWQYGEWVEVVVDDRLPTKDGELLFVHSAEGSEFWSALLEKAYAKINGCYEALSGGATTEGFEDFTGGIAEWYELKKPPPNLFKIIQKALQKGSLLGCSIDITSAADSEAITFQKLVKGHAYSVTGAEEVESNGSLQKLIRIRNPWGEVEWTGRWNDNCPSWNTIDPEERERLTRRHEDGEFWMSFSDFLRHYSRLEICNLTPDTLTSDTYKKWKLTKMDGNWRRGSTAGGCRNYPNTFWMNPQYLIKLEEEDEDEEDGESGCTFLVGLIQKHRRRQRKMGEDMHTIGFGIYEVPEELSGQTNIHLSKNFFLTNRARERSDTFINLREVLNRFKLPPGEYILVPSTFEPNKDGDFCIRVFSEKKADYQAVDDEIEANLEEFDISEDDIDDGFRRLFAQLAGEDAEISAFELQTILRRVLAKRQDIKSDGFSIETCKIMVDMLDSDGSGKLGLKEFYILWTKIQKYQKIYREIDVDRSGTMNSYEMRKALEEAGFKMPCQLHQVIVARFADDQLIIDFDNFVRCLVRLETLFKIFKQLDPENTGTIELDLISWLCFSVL
T1 sequence (P04632 1-268 partner): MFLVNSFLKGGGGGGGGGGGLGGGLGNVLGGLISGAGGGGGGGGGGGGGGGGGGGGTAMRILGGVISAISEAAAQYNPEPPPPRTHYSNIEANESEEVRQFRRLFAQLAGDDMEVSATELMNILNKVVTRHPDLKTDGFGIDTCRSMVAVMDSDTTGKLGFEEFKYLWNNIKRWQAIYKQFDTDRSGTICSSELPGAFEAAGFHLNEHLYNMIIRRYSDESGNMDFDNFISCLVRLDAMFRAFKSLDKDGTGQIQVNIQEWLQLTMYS
Particulars: Li et al, 1996; read-out: Ki for calpain-2 (m-calpain), literature; cited from earlier work.

Assay [2] deals with T1, calpain-2. Put plainly: in vitro calpain-2 inhibition, succinic-Leu-Tyr-AMC substrate. It counts as biochemical. The method, then:
(§1) Formula 1, where chiral center 1 is the L-form and chiral center 2 is a racemic mixture of D- and L- in this example was introduced at various concentrations (from 1 nM to 10 μM) into an in vitro mix comprising succinic-Leu-Tyr-AMC and calpain-1 or calpain-2 (Sasaki et al, 1984), and the kinetics of the loss of fluorescence were determined for each of the calpains (Powers et al, 2000). […] Therefore, the assessment of selectivity described herein was different than the prior teaching.
(§2) Formula 1A, where chiral center 1 is the S-form and chiral center 2 is the S-form was separated from the S-R-form (Formula 1B) using methods that are well-known methods for separating diastereoisomers. Formula 1A, which is also referred to herein as compound 18A, in this example was introduced at various concentrations into an in vitro mix comprising succinic-Leu-Tyr-AMC and μ-calpain or m-calpain (Sasaki et al, 1984), and the kinetics of the loss of fluorescence were determined for each of the calpains.

A further assay concerns the target T2, calpain-1 (Homo sapiens, UniProt P07384).
T2 sequence (P07384 1-714): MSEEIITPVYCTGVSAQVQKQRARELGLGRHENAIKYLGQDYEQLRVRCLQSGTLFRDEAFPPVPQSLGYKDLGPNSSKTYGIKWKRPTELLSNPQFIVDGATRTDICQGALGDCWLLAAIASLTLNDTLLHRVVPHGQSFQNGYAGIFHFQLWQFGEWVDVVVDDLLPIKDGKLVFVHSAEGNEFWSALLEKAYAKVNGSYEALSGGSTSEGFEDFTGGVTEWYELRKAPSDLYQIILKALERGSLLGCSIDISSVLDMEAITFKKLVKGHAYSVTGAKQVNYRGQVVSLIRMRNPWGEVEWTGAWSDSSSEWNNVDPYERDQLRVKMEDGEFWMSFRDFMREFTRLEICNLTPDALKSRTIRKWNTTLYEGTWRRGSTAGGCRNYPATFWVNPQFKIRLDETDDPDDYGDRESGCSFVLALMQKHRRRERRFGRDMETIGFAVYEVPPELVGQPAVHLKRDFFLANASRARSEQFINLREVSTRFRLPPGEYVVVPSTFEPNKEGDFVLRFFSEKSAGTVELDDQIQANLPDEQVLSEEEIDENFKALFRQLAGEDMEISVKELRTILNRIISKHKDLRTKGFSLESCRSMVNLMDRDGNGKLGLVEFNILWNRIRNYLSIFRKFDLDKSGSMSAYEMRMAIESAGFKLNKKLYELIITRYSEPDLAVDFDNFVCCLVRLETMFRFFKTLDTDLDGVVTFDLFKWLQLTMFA
T2 sequence (P04632 1-268 partner): T1 sequence (P04632 1-268 partner)
Put plainly: in vitro calpain-1 inhibition, succinic-Leu-Tyr-AMC substrate. It counts as biochemical. The method, then: as §1, §2

Assay [3] relates to stratum radiatum of field CA1 in acute rat hippocampal slices. Put plainly: field EPSP recording, TBS-induced LTP in acute rat hippocampal slices. It is filed as cell-based. Particulars: for LTP after theta-burst stimulation: 200 nM, preincubation prior to TBS. On the procedure: Results are expressed as percent of the average values over a 10 min baseline period and are means±S.E.M. of the indicated number of experiments.
FIG. 3A: Field recording of excitatory postsynaptic potentials (EPSPs) performed in stratum radiatum of field CA1 in acute rat hippocampal slices in the presence or absence of 200 nM of the calpain-2 selective inhibitor, Formula I, (mCalp-I in the drawing). Preincubation with mCalp-I enhances LTP. Results are expressed as percent of the average values over a 10 min baseline period and are means±S.E.M. of the indicated number of experiments.
Results are expressed as percent of the average values over the 10 min baseline period and are means±S.E.M. of the indicated number of experiments.
Generic calpain inhibitors block LTP when administered before LTP induction. Field recording of excitatory postsynaptic potentials (EPSPs; FIG. 2) was performed in stratum radiatum of field CA1 in acute rat hippocampal slices.
A calpain 2-selective inhibitor enhances LTP. […]

In a further assay the test system is retina (GCL, IPL, RGC). The experiment in a line: acute IOP elevation (acute angle closure glaucoma model), systemic (i.p.) C2l. It is filed as in vivo, mice.
Setting [4] is: injected 2 h after IOP elevation, WT mice, n=5.

Each structure is given as a SMILES string. Read-outs that look alike come from different tables or passages of the source.

For `CCC(NC(=O)C(CC(C)C)NC(=O)OCc1ccccc1)C(=O)C(=O)NCc1cc(OC)cc(OC)c1` (racemic) [Formula 1, Z-Leu-Abu-CONH—CH2-C6H3 (3, 5-(OMe)2)], the Ki at calpain-2 [1] was 22 nM; at calpain-2 [2] (Example 1, chiral center 2 racemic, read-out: Ki for calpain-2, determined herein) it was 25 nM; on calpain-2 [2] (Example 13, n = 3-4, read-out: Ki Calpain-2) it was 21.3 nM; on calpain-1 (Example 1, chiral center 2 racemic, read-out: Ki of calpain-1, re-determined herein) it was 1290 nM; on calpain-1 (Example 13, n = 3-5, read-out: Ki Calpain-1) it was 662 nM; on calpain-1 (earlier value, unit inferred, read-out: Previous Value (Calpain-1)), 940 nM. Besides, the “Ratio KiCalpain-1/KiCalpain-2” value at calpain-2 [2] was 31.1. Moreover, the IC50 on calpain-2 [2] (n = 3-4) amounted to 210 nM; against calpain-1 (n = 3-5), 910 nM. Besides, the “LTP after theta-burst stimulation” value in assay [3] was “enhances it”; in assay [3] (listed as mCalp-I), “enhances LTP”. The “LTP during the consolidation phase” value in assay [3] (applied from 10 min post TBS to 1 hour post TBS) is reported as “enhanced LTP”. In addition, the “survival rate of RGC versus vehicle” value in the assay on retina (GCL, IPL, RGC) (injected 2 h after IOP elevation) was “significantly improved”. Besides, the “RGC counts (brn-3a), IOP-elevated eye” value in the assay on retina (GCL, IPL, RGC) (setting [4]) is on record as 37.1±2.5 cells/mm. Further, the “RGC counts (brn-3a), sham eye” value in the assay with retina (GCL, IPL, RGC) (setting [4]) is given as 45.2±5.0 cells/mm. The “changes in PHLPP1 and pAkt after IOP elevation” value with retina (GCL, IPL, RGC) (retina 3 h after IOP elevation, 0.3 mg/kg at 2 h) is “present in C2l-injected WT mice”.

Usually IC50 stands for the concentration that inhibits the measured activity by half. A higher IC50 goes with lower potency.

Source of the values: patent US20190030114A1, “ISOFORM-SPECIFIC CALPAIN INHIBITORS, METHODS OF IDENTIFICATION, AND USES THEREOF” (WESTERN UNIVERSITY OF HEALTH SCIENCES, priority 2014, published 2019).
